From patent publication US10071976B2, “Small molecule fatty acid synthase inhibitors” (Sanford Burnham Prebys Medical Discovery Institute, priority 2014, dated 2018)
“And” between values parts separate entries of the source, which are not always exact repeats. Equal values may be shown once.

Assays:
FASN = molecular target: T1, FASN (Homo sapiens, UniProt P49327); assay: Competition with activity-based probe FP-PEG-TAMRA in PC-3 whole cell lysate: FASN; format: binding; conditions: PC-3 lysate, 20 μM final, pH 7.8
T1 construct: lysates of the prostate tumor line (PC3), which expresses FASN; endogenous in cells; host or cells: PC-3 prostate tumour cells (whole cell lysate)
T1 sequence (P49327 whole entry): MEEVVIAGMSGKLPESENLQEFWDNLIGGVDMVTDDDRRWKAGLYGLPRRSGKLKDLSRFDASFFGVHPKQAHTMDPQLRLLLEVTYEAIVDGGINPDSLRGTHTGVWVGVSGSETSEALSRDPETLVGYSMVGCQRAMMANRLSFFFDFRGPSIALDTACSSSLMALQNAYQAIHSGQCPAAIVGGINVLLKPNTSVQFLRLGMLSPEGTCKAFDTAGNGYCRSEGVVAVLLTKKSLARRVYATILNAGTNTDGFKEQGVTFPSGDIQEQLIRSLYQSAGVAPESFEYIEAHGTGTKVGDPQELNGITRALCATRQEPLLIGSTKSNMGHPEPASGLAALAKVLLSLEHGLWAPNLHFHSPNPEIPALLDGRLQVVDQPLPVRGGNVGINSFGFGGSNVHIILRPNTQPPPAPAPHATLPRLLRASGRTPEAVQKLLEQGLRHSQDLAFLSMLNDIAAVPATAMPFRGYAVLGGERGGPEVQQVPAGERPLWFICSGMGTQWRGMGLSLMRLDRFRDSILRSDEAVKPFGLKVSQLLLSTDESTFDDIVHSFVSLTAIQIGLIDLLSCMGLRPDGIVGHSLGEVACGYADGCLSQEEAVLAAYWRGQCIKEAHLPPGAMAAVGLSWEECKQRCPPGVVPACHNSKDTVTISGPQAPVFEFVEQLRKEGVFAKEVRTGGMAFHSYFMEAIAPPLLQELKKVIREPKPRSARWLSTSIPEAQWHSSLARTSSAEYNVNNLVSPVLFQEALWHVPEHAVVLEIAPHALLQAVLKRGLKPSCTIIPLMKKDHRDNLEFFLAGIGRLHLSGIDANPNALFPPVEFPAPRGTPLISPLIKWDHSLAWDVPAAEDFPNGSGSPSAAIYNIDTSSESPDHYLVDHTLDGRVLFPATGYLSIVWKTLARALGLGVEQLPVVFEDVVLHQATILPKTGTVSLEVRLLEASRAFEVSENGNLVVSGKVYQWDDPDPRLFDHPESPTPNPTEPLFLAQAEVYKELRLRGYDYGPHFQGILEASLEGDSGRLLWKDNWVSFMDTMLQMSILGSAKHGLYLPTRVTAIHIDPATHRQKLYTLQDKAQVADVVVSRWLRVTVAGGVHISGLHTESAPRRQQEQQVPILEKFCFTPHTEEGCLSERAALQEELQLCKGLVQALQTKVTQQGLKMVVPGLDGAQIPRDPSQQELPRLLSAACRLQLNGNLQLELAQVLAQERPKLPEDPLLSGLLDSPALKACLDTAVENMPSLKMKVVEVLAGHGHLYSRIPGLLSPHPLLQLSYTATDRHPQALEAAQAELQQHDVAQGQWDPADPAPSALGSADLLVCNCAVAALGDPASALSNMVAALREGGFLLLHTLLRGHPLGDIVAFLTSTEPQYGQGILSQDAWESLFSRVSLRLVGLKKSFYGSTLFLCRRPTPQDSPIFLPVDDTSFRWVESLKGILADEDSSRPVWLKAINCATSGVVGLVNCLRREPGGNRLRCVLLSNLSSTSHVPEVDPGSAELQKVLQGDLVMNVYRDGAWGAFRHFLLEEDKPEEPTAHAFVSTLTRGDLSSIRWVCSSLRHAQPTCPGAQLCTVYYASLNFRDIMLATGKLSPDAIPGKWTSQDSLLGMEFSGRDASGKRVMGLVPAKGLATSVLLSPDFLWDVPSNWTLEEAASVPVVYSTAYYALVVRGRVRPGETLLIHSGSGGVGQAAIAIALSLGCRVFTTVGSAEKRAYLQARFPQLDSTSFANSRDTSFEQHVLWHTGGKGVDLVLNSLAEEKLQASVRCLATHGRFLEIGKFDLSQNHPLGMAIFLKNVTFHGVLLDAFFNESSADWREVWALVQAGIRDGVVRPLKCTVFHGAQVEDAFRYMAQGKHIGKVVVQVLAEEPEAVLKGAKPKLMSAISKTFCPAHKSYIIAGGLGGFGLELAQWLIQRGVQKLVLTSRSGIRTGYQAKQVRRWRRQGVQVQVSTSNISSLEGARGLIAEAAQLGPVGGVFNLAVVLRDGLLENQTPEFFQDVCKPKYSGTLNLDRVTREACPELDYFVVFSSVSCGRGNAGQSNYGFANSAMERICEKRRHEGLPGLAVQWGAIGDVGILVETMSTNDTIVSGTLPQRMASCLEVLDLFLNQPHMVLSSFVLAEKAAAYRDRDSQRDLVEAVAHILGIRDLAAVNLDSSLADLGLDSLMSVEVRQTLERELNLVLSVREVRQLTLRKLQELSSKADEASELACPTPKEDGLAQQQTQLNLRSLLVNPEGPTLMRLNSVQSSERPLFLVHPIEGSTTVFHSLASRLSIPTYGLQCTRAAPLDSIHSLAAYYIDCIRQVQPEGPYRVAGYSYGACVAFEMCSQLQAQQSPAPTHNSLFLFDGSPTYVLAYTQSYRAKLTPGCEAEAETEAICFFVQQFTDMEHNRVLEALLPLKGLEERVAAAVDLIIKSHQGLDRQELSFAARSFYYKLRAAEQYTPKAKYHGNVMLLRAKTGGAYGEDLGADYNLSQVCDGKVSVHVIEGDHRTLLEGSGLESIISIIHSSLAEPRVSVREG
Method: Studies were conducted to determine the selectivity of compound 16 for FASN over other human thioesterases. The ability of the compounds to bind the FASN holoenzyme was tested by assessing their ability to compete for the binding of an activity-based probe that covalently attaches to the active site of the FASN thioesterase. Thioesterases are members of the serine hydrolase family, which also includes a number of other types of enzymes including proteases, dipeptidyl peptidases, epoxide hydrolases, etc. To help assess the selectivity of compound 16, an activity-based probe polyethyleneglycol-6-carboxytetramethyl-rhodamine (FP-PEG-TAMRA) that binds covalently to the catalytic serine of all serine hydrolases was used. These studies were done by assessing the ability of compound 16 to compete for the binding of the activity-based probe in whole cell lysates. Several analogs of compound 16 were tested in this assay using lysates of the prostate tumor line (PC3), which expresses FASN, along with numerous other serine hydrolases. The PC-3 lysate was incubated with 8 different FASN inhibitors, including compounds 1, 16 and 97. Then the activity-based probe (FP-PEG-TAMRA) was added to each sample to label the serine hydrolases in the lysate.

FASN thioesterase = molecular target: T2, FASN thioesterase (Homo sapiens, UniProt P49327); assay: FP-PEG-TAMRA labeling of recombinant FASN thioesterase; format: binding; conditions: recombinant enzyme, 20 μM final, pH 7.8
T2 construct: label the active site of the FASN thioesterase and ACOT4
T2 sequence (P49327 2207-2511 limits assumed): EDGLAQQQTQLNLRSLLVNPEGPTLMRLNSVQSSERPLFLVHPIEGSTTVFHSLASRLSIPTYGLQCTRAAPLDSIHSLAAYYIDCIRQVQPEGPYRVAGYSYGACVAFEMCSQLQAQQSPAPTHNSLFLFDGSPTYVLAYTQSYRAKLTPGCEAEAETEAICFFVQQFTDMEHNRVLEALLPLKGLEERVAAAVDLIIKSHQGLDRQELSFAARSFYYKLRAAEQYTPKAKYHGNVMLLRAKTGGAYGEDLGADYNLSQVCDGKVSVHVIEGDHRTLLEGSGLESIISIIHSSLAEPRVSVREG
Method: (§1) Additionally, studies were performed to test the selectivity of Compounds 1, 16, 22, and 37 for the FASN thioesterase over its most closely related human homolog, the enzyme called ACOT4 (see FIG. 3). Both proteins were mixed and pretreated with the compound (20 μM final, pH 7.8) before addition of the fluorescent activity probe FP-PEG-TAMRA. Respective fluorescence of the bands was detected on a Hitachi flatbed scanner and a greyscale version used for quantitative analysis using ImageJ. Recombinant forms of each enzyme were incubated with compound 16, compound 1, compound 37, and compound 22. FP-TAMRA was included in this mixture to label the active site of the FASN thioesterase and ACOT4. […] These findings further attest to the high degree of selectivity of compounds 1, 16, 37 and 22 for the FASN thioesterase.

ACOT4 = molecular target: T3, ACOT4 (Homo sapiens, UniProt Q8N9L9); assay: FP-PEG-TAMRA labeling of recombinant ACOT4; format: binding; conditions: recombinant enzyme, 20 μM final, pH 7.8
T3 sequence (Q8N9L9 1-421): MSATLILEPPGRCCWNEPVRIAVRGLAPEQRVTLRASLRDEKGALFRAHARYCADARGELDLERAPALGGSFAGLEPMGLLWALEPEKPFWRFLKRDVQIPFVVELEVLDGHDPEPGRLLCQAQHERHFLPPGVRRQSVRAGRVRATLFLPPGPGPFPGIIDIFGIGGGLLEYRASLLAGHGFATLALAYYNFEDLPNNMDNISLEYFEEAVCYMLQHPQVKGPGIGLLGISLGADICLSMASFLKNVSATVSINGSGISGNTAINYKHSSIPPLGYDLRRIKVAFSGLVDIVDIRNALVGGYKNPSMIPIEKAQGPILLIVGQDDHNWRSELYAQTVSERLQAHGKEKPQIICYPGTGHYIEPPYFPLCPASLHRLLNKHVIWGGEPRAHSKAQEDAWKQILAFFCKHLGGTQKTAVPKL
Method: as §1

FASN-TE [1] = molecular target: T4, FASN-TE (Homo sapiens, UniProt P49327); assay: In-vitro biochemical assay measuring FAS-TE inhibition (OMFH substrate, fluorescence)
T4 sequence (P49327 2207-2511 limits assumed): as the sequence (P49327 2207-2511 limits assumed) above
Method: Min wells: Substrate+No enzyme+DMSO, Max wells: Substrate+Enzyme+DMSO, Sample wells: Substrate+Enzyme+Test compounds, Reference compound: Orlistat (make a fresh 10 mM stock in DMSO each time). 384-well black, low-volume plate (Greiner #784076)
Assay Protocol: • 1) ECHO transfer 160 nL of 125× Compound (or DMSO for control wells) per well. • 2) For Max and Sample wells: Add 10 μL of Enzyme (2×; 1.8 μM) prepared in RXN Buffer. For Min wells: Add 10 μL of RXN Buffer (No Enzyme). • 3) For all wells: Add 10 μL of Substrate (2×; 20 μM) prepared in diH2O+10% DMSO. • 4) Centrifuge plate for 1 minute at 1,000 rpm. • 5) Measure fluorescence every 5 minutes for 1-1.5 hours using the BMG POLARstar (ex 485 nm/em 520 nm; Gain=1015; 25 flashes). • 6) All volumes can be adjusted but the final DMSO concentration should be kept at about 6%.
Data Analysis: • 1) Calculate slopes and express as % Activity (Min wells=0%; Max wells=100%). • 2) Then, using Prism, calculate the IC50 values.

[2] = test system: prostate cancer PC-3 cells; assay: De novo palmitate synthesis from 13C-glucose in whole cells (GC-MS); format: cell-based
Method: The ability of compounds to block biosynthesis of palmitate in whole cells (prostate cancer PC-3 cells) was measured by feeding cells isotopically labeled glucose (^13C-glucose) and measuring the incorporation of ^13C into palmitate by GC-MS.
Prostate cancer PC-3 cell were incubated with 20 μM of FASN inhibitors and labeled with [U-13C]-glucose for 24 h, pH 7.8. The incorporation of ^13C into palmitate from labeled glucose was determined by extracting fatty acids and resolving them by GC-MS. The mass distributions for fatty acid methyl esters for C16:0 (palmitate) were corrected for isotope natural abundance, and the corrected isotope patterns were used to calculate the labeling of acetyl-CoA in palmitate based on a binomial probability distribution of the incorporation of labeled acetyl units into the fatty acid chain.

sodium channel = assay: Eurofins Panlabs binding panel: sodium channel; conditions: 10 μM
Method: (§2) To further evaluate selectivity and identify any off-target effects, compound 37 was tested against a commercial panel of 34 binding assays (enzymes, receptors & ion channels) through Eurofins Panlabs. […] Compound 37 was also tested in a commercial panel of 17 diverse proteases (Reaction Biology).

[3] = Pharmacokinetic study, IP dosing; format: in vivo; conditions: mice, 10 mg/kg IP
Method: A pharmacokinetic (PK) study of Compound 37 dosed systemically (IP) in mice was conducted. At 10 mg/kg (IP) compound 37 attained plasma levels post dosing of >3 μM up to 30 min., >2 μM up to 1 h, and >1 μM up to 2 h.

FASN-TE [4] = molecular target: T4, FASN-TE; assay: Eadie-Hofstee enzymology analysis; format: biochemical
Method: Furthermore, using a classical enzymology analysis (Eadie-Hofstee) compound 37 was determined to have a non-competitive mode of inhibition (see FIG. 2).

17 diverse proteases = assay: Commercial panel of 17 diverse proteases (Reaction Biology); format: biochemical; conditions: up to 100 μM
Method: as §2

CYP450 2C19 = molecular target: T5, CYP450 2C19 (Homo sapiens, UniProt P33261); assay: Eurofins Panlabs binding panel: CYP450 2C19; conditions: 10 μM
T5 construct: purchased Eurofins Panlabs
T5 sequence (P33261 whole entry): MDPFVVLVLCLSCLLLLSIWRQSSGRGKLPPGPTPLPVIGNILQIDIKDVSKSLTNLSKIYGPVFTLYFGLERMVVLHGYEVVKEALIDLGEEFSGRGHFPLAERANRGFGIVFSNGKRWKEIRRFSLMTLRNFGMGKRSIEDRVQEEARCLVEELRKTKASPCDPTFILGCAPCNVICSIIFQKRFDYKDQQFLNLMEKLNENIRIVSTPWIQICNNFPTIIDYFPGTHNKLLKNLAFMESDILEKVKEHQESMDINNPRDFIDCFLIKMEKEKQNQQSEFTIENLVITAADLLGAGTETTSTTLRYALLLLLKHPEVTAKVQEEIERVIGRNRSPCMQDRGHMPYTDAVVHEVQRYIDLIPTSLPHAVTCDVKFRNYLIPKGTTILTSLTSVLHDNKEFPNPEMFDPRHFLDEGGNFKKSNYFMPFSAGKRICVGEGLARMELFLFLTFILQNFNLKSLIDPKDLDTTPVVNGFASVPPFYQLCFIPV
Method: as §2

chymotrypsin = assay: Reaction Biology protease panel: chymotrypsin; format: biochemical; conditions: read-out: chymotrypsin inhibition (IC50)
Method: as §2

[5] = test system: enzymes, receptors & ion channels; assay: Commercial panel of 34 binding assays (Eurofins Panlabs); conditions: 10 μM
Method: as §2

SMILES | inhibition of FASN (blocking of FP-TAMRA binding) (FASN) | binding of FP-TAMRA to the active site of the FASN thioesterase (FASN thioesterase) | activity labeling of ACOT4 (ACOT4) | IC50 (FASN-TE [1]) | inhibition of palmitate synthesis in whole cells [2] | de novo palmitate synthesis/DMSO (%) ([2]; 20 μM, [U-13C]-glucose 24 h, pH 7.8, relative to DMSO control) | binding interaction (sodium channel) [%] | plasma levels post dosing ([3]; up to 30 min) [nM] | plasma levels post dosing ([3]; up to 1 h) [nM] | plasma levels post dosing ([3]; up to 2 h) [nM] | mode of inhibition (FASN-TE [4]) | interactions in panel of 17 proteases (17 diverse proteases) | binding interaction (CYP450 2C19) [%] | IC50 (chymotrypsin) [nM] | binding interactions >50% in panel of 34 binding assays [5]
CCCCC(=O)Nc1nc(-c2ccc(S(=O)(=O)N3CCOCC3)cc2)cs1 [Compound 1] | showed inhibition of FASN | blocked the binding of FP-TAMRA | without effect | 199 nM and 204 nM and 555 nM | inhibitory activity | 40 |  |  |  |  |  |  |  |  | 
CCC(C)C(=O)Nc1nc(-c2ccc(S(=O)(=O)N(CC)CC)cc2)cs1 (stereo not shown) [Compound 37] |  | blocked the binding of FP-TAMRA | without effect | 300 nM | dose-dependently inhibits palmitate synthesis |  | 74 | > 3000 | > 2000 | > 1000 | non-competitive | Only one interaction | 50 | 1700 | Only two binding interactions>50%
